Laboratory results reported in US20060127400A1, “Activation of regulatory T cells by alpha-melanocyte stimulating hormone” (THE SCHEPENS EYE RESEARCH INSTITUTE, INC., priority 1999, published 2006).
No end group written: not given here.

System: primed Th1 cells
Assay: in vitro regulatory T cell activity assay (IFN-γ of freshly activated primed Th1 cells in coculture)
Assay type: cell-based, mouse (BALB/c)
Experimental: Assay For In Vitro Regulatory T Cell Activity. The α-MSH-treated TCR-stimulated T cells, as described above, were cultured for 48 hours. The plate was spun down at 250×g for 10 minutes and supernatant discarded. Freshly isolated, enriched in vivo primed Th1 cells (4×10^6 cells/ml) mixed with 2C11 (1 μg/ml) were added (200 μl) to the wells of the α-MSH pre-treated, TCR-stimulated T cells and incubated for 48 hours. The culture supernatant was assayed for IFN-γ by sandwich ELISA. For long term cultures, primed T cells were TCR-stimulated in the presence of α-MSH for 48 hours. The plate was centrifuged and supernatant was exchanged for 200 μl of 2C11 (1 μg/ml) in fresh media, no x-MSH. The cultures were incubated for 72 hours and the conditioned media was again exchanged for fresh media and 2C11 antibody. The cultures were incubated for an additional 48 hours, centrifuged, supernatant discarded, and added were fresh in vivo primed Th1 cells and 2C11 antibody. Soluble TGF-β receptor II (sTGF-βRII, R&D Systems) was added to some of the cultures. These cultures were incubated for 48 hours and the culture supernatant was assayed for IFN-γ by sandwich ELISA.
Primed T cells (4×10^5 cells) were enriched and activated with anti-CD3 in the presence (α-MSH+anti-CD3) or absence (+anti-CD3) of α-MSH (30 pg/ml). After 48 hours of incubation the cells were mixed with freshly enriched primed Th1 cells (4×10^5 cells) and anti-CD3 antibody and cultured for 48 hours. The culture supernatant was assayed for IFN-γ by sandwich ELISA. Results are presented as IFN-γ pg/ml±SEM of eight independent experiments.
In addition, T cells initial TCR-stimulated in the presence of α-MSH and subsequently restimulated twice (Day 2 and Day 5) with anti-TCR antibody in the absence of α-MSH, still suppressed IFN-γ production by freshly activated primed Th1 cells (FIG. 6). […] Primed T cells (4×10^5 cells) were enriched and activated with anti-CD3 antibody in the presence of 30 pg/ml α-MSH (α-MSH+anti-CD3) or absence of α-MSH (+anti-CD3). After 48 hours of incubation the cells were centrifuged and resuspended in fresh media with anti-CD3 antibodies and incubated for 72 hours (day 5). The cells were again washed and re-stimulated with anti-CD3 and incubated for an additional 48 hours (day 7). After the final incubation the treated T cells (4×10^5 cells) were mixed with freshly enriched primed Th1 cells (4×10^5 cells) and anti-CD3 antibody and cultured for 48 hours. The culture supernatant was assayed for IFN-γ by sandwich ELISA. Results are presented as IFN-γ pg/ml±SEM of eight independent experiments. […] Therefore, α-MSH mediates induction of functionally active, regulatory Th3 cells.
TGF-β and α-MSH induce regulatory T cell activity. Primed T cells were TCR-stimulated in the presence or absence of 30 pg/ml α-MSH with TGF-β1 or TGF-β2 (5.0 ng/ml) added 4 hours after TCR-stimulation. The treated T cells (Regulatory T cells) were added to cultures of freshly activated primed T cells. Culture supernatants were assayed for IFN-γ 48 hours after addition of treated T cells. Data are presented as percent suppression±SEM of IFN-γ produced by freshly activated T cells with no added regulatory cells, from eight independent experiments.

## α-melanocyte stimulating hormone (SYSMEHFRWGKPV; not fully specified; ends and bridges not checked; UniProt P01189 138-150, looked up) [α-MSH, synthetic α-MSH (Peninsula Laboratories); thirteen-amino acid neuropeptide derived from POMC]
α-MSH 30 pg/ml only at first stimulation, restimulated Day 2 and Day 5 without α-MSH, then coculture 48 h
  IFN-γ in cocultures with T cells initially activated in the presence of α-MSH, long term: significantly (p=0.05) suppressed
α-MSH 30 pg/ml or TGF-β 5.0 ng/ml
  induction of regulatory T cell activity (suppression of IFN-γ of other Th1 cells), factor individually: induced regulatory T cell activity
